Data reported in patent US20220257704A1, “COMBINATION OF CHEMOTHERAPY WITH RECOMBINANT S. ROLFSII LECTIN” (Unichem Laboratories Ltd, priority 2018, published 2022).
pIC50: −log10 of the molar value. Read-outs that look alike come from different tables or passages of the source.

Columns and labels:
Assay in all cases: MTT cytotoxicity assay, 48 h, alone and in combination (IC50 and Combination Index)
Assay type in all cases: cell-based
MDA-MB-231 cell line = tested on: MDA-MB-231 cell line
Method: The cell were kept in contact with the recombinant lectin of SEQ ID NO: 1 and the chemotherapy agent for 48 h and the cytotoxic effect (percentage cytotoxicity) was measured. The cytotoxic effect was determined by well-known colorimetric MTT assay (Mossman, T. 1983 Rapid colorimetric assay for cellular growth and survival: application to proliferation and cytotoxicity assays Journal of Immunological Methods, volume 65, pages 55-63) for assessing cell metabolic activity.
Based on percentage cytotoxicity data, IC50 values were determined using the software GraphPad Prism version 4.01.
Combination Index (CI) values were determined for each drug concentration combination. The CI values were calculated based on the IC50 values using the formula as given in below.
A study was performed to determine the effect of the concentration of the recombinant lectin represented by SEQ ID NO: 1 on the IC50 of Paclitaxel for cytotoxicity in MDA-MB-231 cells. Conversely the effect of the concentration of Paclitaxel on the IC50 of the recombinant lectin represented by SEQ ID NO: 1.
Similarly another study was performed for Carboplatin in combination with the recombinant lectin of SEQ ID NO: 1.
In a further study, MDA-MB-231 cells were treated with Paclitaxel (0.001 nM-10 nM) in combination with SEQ ID NO: 1(2.5 μg/mL-80 μg/mL) for 48 h. Similarly another set of cells were treated with Carboplatin (10 μM-1000 μM) in combination with SEQ ID NO: 1 (2.5 μg/mL-80 μg/mL).

PA-1 cell line = settings: for pIC50: Homo sapiens, read-out: IC50 of Paclitaxel
Method: In a further study, PA-1 cells were treated with Cisplatin(0.01 μM-5 μM) in combination with SEQ ID NO: 1(1 μg/mL-20 μg/mL) for 48 h. Similarly another set of cells were treated with Paclitaxel (0.01 nM-5 nM) in combination with SEQ ID NO: 1 (1 μg/mL-20 μg/mL).

HT-29 cell line = settings: Homo sapiens, read-out: IC50 of Irinotecan

Q: `CC(=O)O[C@H]1C(=O)[C@@]2(C)[C@H]([C@H](OC(=O)c3ccccc3)[C@]3(O)C[C@H](OC(=O)[C@H](O)[C@@H](NC(=O)c4ccccc4)c4ccccc4)C(C)=C1C3(C)C)[C@]1(OC(C)=O)CO[C@@H]1C[C@@H]2O` [Paclitaxel, reference compound] was tested. Which pIC50 (MDA-MB-231 cell line; Homo sapiens, MDA-MB-231, SEQ ID NO: 1 at 0 μg/mL, read-out: IC50 of Paclitaxel) did it give?
A: Its pIC50 is 8.79.

Q: What about the pIC50 (MDA-MB-231 cell line; Homo sapiens, MDA-MB-231, SEQ ID NO: 1 at 5 μg/mL, read-out: IC50 of Paclitaxel) of the same compound?
A: Its pIC50 is 8.03.

Q: And the pIC50 (MDA-MB-231 cell line; Homo sapiens, MDA-MB-231, SEQ ID NO: 1 at 10 μg/mL, read-out: IC50 of Paclitaxel)?
A: The pIC50 was 9.41.

Q: What about the pIC50 (MDA-MB-231 cell line; Homo sapiens, MDA-MB-231, SEQ ID NO: 1 at 20 μg/mL, read-out: IC50 of Paclitaxel) of the same compound?
A: Its pIC50 is 9.91.

Q: What about the pIC50 (MDA-MB-231 cell line; Homo sapiens, MDA-MB-231, SEQ ID NO: 1 at […], read-out: IC50 of Paclitaxel) of the same compound?
A: Its pIC50 is 8.40.

Q: What about the pIC50 (PA-1 cell line; PA-1, SEQ ID NO: 1 at 0 μg/mL) of the same compound?
A: Its pIC50 is 8.39.

Q: And the pIC50 (PA-1 cell line; PA-1, SEQ ID NO: 1 at 1 μg/mL)?
A: The pIC50 was 8.44.

Q: What about the pIC50 (PA-1 cell line; PA-1, SEQ ID NO: 1 at 5 μg/mL) of the same compound?
A: Its pIC50 is 9.65.

Q: And the pIC50 (PA-1 cell line; PA-1, SEQ ID NO: 1 at […])?
A: The pIC50 was 8.46.

Q: What about the “Conc. of other therapeutic agents showing synergistic effect” value (PA-1 cell line; Paclitaxel with SEQ ID NO: 1, paired with SEQ ID NO: 1 conc.) of the same compound?
A: The value was 0.25 to 5 nM.

Q: Which results are given for `N.N.O=C([O-])C1(C(=O)[O-])CCC1.[Pt+2]` [Carboplatin, reference compound]?
A: pIC50 (MDA-MB-231 cell line; SEQ ID NO: 1 at 0 μg/mL, read-out: IC50 of Carboplatin): 3.32; pIC50 (MDA-MB-231 cell line; SEQ ID NO: 1 at 5 μg/mL, read-out: IC50 of Carboplatin): 5.40; pIC50 (MDA-MB-231 cell line; SEQ ID NO: 1 at 10 μg/mL, read-out: IC50 of Carboplatin): 5.31; pIC50 (MDA-MB-231 cell line; SEQ ID NO: 1 at 20 μg/mL, read-out: IC50 of Carboplatin): 5.07; pIC50 (MDA-MB-231 cell line; SEQ ID NO: 1 at 40 μg/mL, read-out: IC50 of Carboplatin): 5.85; pIC50 (MDA-MB-231 cell line; SEQ ID NO: 1 at 80 μg/mL, read-out: IC50 of Carboplatin): 5.23; pIC50 (MDA-MB-231 cell line; SEQ ID NO: 1 at […], read-out: IC50 of Carboplatin): 3.65

Q: With `CCc1c2c(nc3ccc(OC(=O)N4CCC(N5CCCCC5)CC4)cc13)-c1cc3c(c(=O)n1C2)COC(=O)[C@]3(O)CC` [Irinotecan, reference compound] as the compound, how does the pIC50 (HT-29 cell line; HT-29, SEQ ID NO: 1 at 0 μg/mL) read?
A: The pIC50 was 4.79.

Q: And the pIC50 (HT-29 cell line; HT-29, SEQ ID NO: 1 at 1 μg/mL)?
A: Its pIC50 is 4.31.

Q: And the pIC50 (HT-29 cell line; HT-29, SEQ ID NO: 1 at 5 μg/mL)?
A: Its pIC50 is 5.56.

Q: What about the pIC50 (HT-29 cell line; HT-29, SEQ ID NO: 1 at 10 μg/mL) of the same compound?
A: Its pIC50 is 5.26.

Q: What about the pIC50 (HT-29 cell line; HT-29, SEQ ID NO: 1 at 20 μg/mL) of the same compound?
A: The pIC50 was 5.87.

Q: What about the pIC50 (HT-29 cell line; HT-29, SEQ ID NO: 1 at 40 μg/mL) of the same compound?
A: Its pIC50 is 6.56.

Q: And the pIC50 (HT-29 cell line; HT-29, SEQ ID NO: 1 at 80 μg/mL)?
A: The pIC50 was 6.78.
